Test results as given in paper PMC6984391, “Anion carriers as potential treatments for cystic fibrosis: transport in cystic fibrosis cells, and additivity to channel-targeting drugs” (Chemical Science, 2019).

Columns and labels:
[1] = Cl-/NO3- exchange in LUVs with preincorporated anionophore (lucigenin method); assay type: biochemical; conditions: transporter preincorporated in LUVs (70% POPC + 30% cholesterol), 25 mM NaCl gradient, 225 mM NaNO3; new compound or new data
Description: The four new anionophores were tested for affinity to Cl^– (in CHCl3 and DMSO, with tetra-alkylammonium counter-ions), and for anion transport (Cl^–/NO3^– exchange) when preloaded into 200 nm large unilamellar vesicles (LUVs). The latter assay was performed using the well-established “lucigenin method”[30] in which Cl^– influx into vesicles is followed through quenching of fluorescence from the halide-sensitive fluorophore lucigenin. The results are listed in Table 1, accompanied by corresponding values for the previously-reported compounds where available. […] In this test, anion transport by anionophores delivered externally to LUVs is compared with their action when preloaded into LUV membranes.[24],[29],[32]
3. Transport studies in vesicles
Transport measurements in vesicles with preincorporated anionophores.
1-Palmitoyl-2-oleoyl-sn-glycero-3-phosphocholine (POPC) was obtained from Avanti® Polar Lipids, Inc. An extrusion apparatus and 200 nm polycarbonate membranes were obtained from GC Technology Ltd. All lipid and receptor solutions were prepared using chloroform that had been deacidified by passage through a flash chromatography column containing basic alumina, and all aqueous solutions were prepared using deionised water that had been passed through a Millipore filtration system.
POPC and cholesterol solutions (~10 mM) in deacidified chloroform were combined with a solution of transporter in methanol or deacidified chloroform in a 5 mL round bottomed flask.
Volumes of the aliquots were calculated from the concentrations of the lipid solution to obtain a POPC to cholesterol ratio of 7:3 (for instance by combining 4.20 µmol POPC and 1.80 µmol cholesterol). The ratio of anionophore to lipid (POPC + cholesterol) was either 1:2500 or 1:25000, as specified in the experiments. The solvents from the lipid/receptor mixture were evaporated under a stream of N2 and the lipid film was dried under high vacuum for 1 h. The residue was hydrated with 500 µL of an aqueous solution of 10,10'-dimethyl-9,9'-biacridinium nitrate (lucigenin, 0.8 mM) and NaNO3 (225 mM), sonicated for 30 s and stirred for 1 h to give heterogeneous vesicles. Multilamellar vesicles were disrupted by 10 freeze-thaw cycles and then the solution was diluted to 1 mL (by adding 0.5 mL of 225 mM NaNO3) and carefully extruded (29 times) through a polycarbonate membrane (200 nm pore size) to give a uniform distribution of LUVs with an average diameter of ~200 nm.2 The external lucigenin was removed by passing the solution though a size exclusion column (containing ~2 g Sephadex 50G, eluted with 225 mM NaNO3). The collected vesicles were further diluted with NaNO3 solution (225 mM) to obtain a vesicle solution with 0.4 mM lipid concentration. 3.00 mL of this vesicle solution was placed in a quartz cuvette with a small stir bar and the fluorescence intensity (excitation at 450 nm, emission at 535 nm) was measured over time at 25 °C, using a PerkinElmer LS45 fluorescence spectrometer. 75 µL of aqueous NaCl (1.0 M in 225 mM NaNO3, to give an overall external chloride concentration of 25 mM) was added ~30 seconds after the start of the experiment and the fluorescence intensity was measured for another 14 […]
Fluorescence data were collected for at least four replicate experiments. The plateau (before addition of chloride) and the vertical drop (the first 1-2.5 seconds after chloride addition, due to quenching of external lucigenin) were removed. Next the data were normalized: all fluorescence values (F) were divided by the fluorescence value before addition of chloride (F0).
Initial rates (I) were obtained from fluorescence -decay curves (0-500 s) by fitting their inverse (F0/F) to a double exponential decay function:
Differentiating this gives F = abe−bt + cde−dt […]
and substituting t = 0 gives the following equation for initial rate: I = ab + cd Specific initial rates [I] were obtained by dividing the initial rates by the anionophore to lipid […]

[2] = tested on: YFP-FRT cells; test: IncuCyte ZOOM apoptosis (annexin V red) in YFP-FRT cells; assay type: cell-based; conditions: for time from which apoptosis is apparent: 30 and 50 μM, P < 0.05 vs. DMSO; for induction of apoptosis: all concentrations tested, 24 h period
Description: To test for the induction of apoptosis by anionophores, we also used the IncuCyte ZOOMTM (Essen Bioscience) live-cell analysis system. YFP-FRT cells were seeded and grown on 96-well plates as described above for cell viability studies. After 48 h, the YFP-FRT culture media was replaced with fresh culture media containing test anionophores or the vehicle (DMSO 0.5% v v-1) and IncuCyte annexin V red reagent (Essen Bioscience) was added following the manufacturer’s instructions before the YFP-FRT cells were transferred to the IncuCyte ZOOMTM. At 2 h intervals over a 24 h period, 4 images of each well on 96-well plates were acquired; the phase contrast images were used to determine the total number of cells per well, while the fluorescence images to identify the number of apoptotic cells labelled red by the IncuCyte annexin V red reagent. In each experiment, one data point is the average value […]
Except for ivacaftor and lumacaftor (Selleck Chemicals; Stratech Scientific Ltd., Newmarket, UK), chemicals were supplied by the Sigma-Aldrich Company Ltd. (now Merck KGaA) (Gillingham, UK). UTP was dissolved in distilled water, forskolin in methanol, while anionophores and channel modulators were prepared in DMSO. Stock solutions were stored at –20 °C except those of anionophores, which were stored at room temperature. Immediately before use, stock solutions were diluted to final concentrations. Precautions against light-sensitive reactions were observed when using anionophores and channel modulators. DMSO […]
Previous work has identified that some anionophores trigger apop totic cell death.18,19,2018,19 Using the IncuCyte ZOOMTM live-cell analysis system and the IncuCyte annexin V red reagent, we assessed whether the anionophores 11, 12, 15 and 19 induce […]
concentrations ≥ 10 µM with the effects of 30 and 50 µM apparent from as early as 2 h (P < […]
concentrations tested over the 24 h period studied (P > 0.05 vs. DMSO 0.5% v v-1) (Fig. S25). […]
the data re-affirm the promising biological activity of anionophore 11.

Compound | Specific initial rate [I] [1] | time from which apoptosis is apparent [2] | induction of apoptosis [2]
COCCOCCOC(=O)[C@]12CC[C@@H](NC(=O)Nc3ccc(C(F)(F)F)cc3)C[C@@H]1C[C@@H](NC(=O)Nc1ccc(C(F)(F)F)cc1)CC2 [Compound 9] | 9 s^–1 |  | 
CCOC(=O)[C@]12CC[C@@H](NC(=S)Nc3ccc([N+](=O)[O-])cc3)C[C@@H]1C[C@@H](NC(=S)Nc1ccc([N+](=O)[O-])cc1)CC2 [Compound 12] | 310 s^–1 | ≥ 2 h | positive effects
FC(F)(F)c1ccc(NC(=S)NCCN(CCNC(=S)Nc2ccc(C(F)(F)F)cc2)CCNC(=S)Nc2ccc(C(F)(F)F)cc2)cc1 [Compound 18] | 36 ^b s^–1 |  | 
CCCCCCCCOC(=O)[C@]12CC[C@@H](NC(=S)Nc3ccc([N+](=O)[O-])cc3)C[C@@H]1C[C@@H](NC(=S)Nc1ccc([N+](=O)[O-])cc1)CC2 [Compound 13] | 370 s^–1 |  | 
COCCOCCOC(=O)[C@]12CC[C@@H](NC(=O)Nc3cc(C(F)(F)F)cc(C(F)(F)F)c3)C[C@@H]1C[C@@H](NC(=O)Nc1cc(C(F)(F)F)cc(C(F)(F)F)c1)CC2 [Compound 10] | 19 s^–1 |  | 
FC(F)(F)c1cc(NC(=S)NCCN(CCNC(=S)Nc2cc(C(F)(F)F)cc(C(F)(F)F)c2)CCNC(=S)Nc2cc(C(F)(F)F)cc(C(F)(F)F)c2)cc(C(F)(F)F)c1 [Compound 19] | 590 ^b s^–1 | ≥ 2 h | positive effects
CCOC(=O)[C@]12CC[C@@H](NC(=S)Nc3cc(C(F)(F)F)cc(C(F)(F)F)c3)C[C@@H]1C[C@@H](NC(=S)Nc1cc(C(F)(F)F)cc(C(F)(F)F)c1)CC2 [Compound 15] |  | ≥ 2 h | positive effects
